According to US6469196B2, “Dialkyl phenyl halide-substituted keto-enols for use as herbicides and pesticides” (Bayer Aktiengesellschaft, priority 1995, dated 2002):

Key:
Type in all cases: in vivo
[1] = system: mustard beetle larvae (Phaedon cochleariae); assay: Phaedon larvae test; conditions: active compound concentration 0.1%; after 7 days; dipped cabbage leaves (Brassica oleracea)
Procedure: Phaedon larvae Test Solvent: 7 parts by weight of dimethylformamide Emulsifier: 1 part by weight of alkylaryl polyglycol ether To produce a suitable preparation of active compound, 1 part by weight of active compound is mixed with the stated amount of solvent and the stated amount of emulsifier, and the concentrate is diluted with water to the desired concentration. Cabbage leaves (Brassica oleracea) are treated by being dipped into the preparation of the active compound of the desired concentration and are infested with mustard beetle larvae (Phaedon cochleariae), while the leaves are still moist. […] 100% means that all the beetle larvae have been killed; 0% means that none of the beetle larvae have been killed.

[2] = system: green rice leafhopper (Nephotettix cincticeps); assay: Nephotettix test; conditions: active compound concentration 0.1%; after 6 days; dipped rice seedlings (Oryza sativa)
Procedure: (§1) Nephotettix Test Solvent: 7 parts by weight of dimethylformamide Emulsifier: 1 part by weight of alkylaryl polyglycol ether To produce a suitable preparation of active compound, 1 part by weight of active compound is mixed with the stated amount of solvent and the stated amount of emulsifier, and the concentrate is diluted with water to the desired concentration. Rice seedlings (Oryza sativa) are treated by being dipped into the preparation of the active compound of the desired concentration and are infested with the green rice leafhopper (Nephotettix cincticeps) while the leaves are still moist. After the specified period of time, the destruction in % is determined. 100% means that all the leafhoppers have been killed; 0% means that none of the leafhoppers have been killed.

[3] = system: common spider mite or two-spotted spider mite (Tetranychus urticae); assay: Tetranychus test (OP-resistant/dipping treatment); conditions: active compound concentration 0.1%; after 13 days; dipped infested bean plants (Phaseolus vulgaris)
Procedure: Tetranychus Test (OP-resistant/dipping Treatment)
Solvent: 7 parts by weight of dimethylformamide
Emulsifier: 1 part by weight of alkylaryl polyglycol ether
To produce a suitable preparation of active compound, 1 part by weight of active compound is mixed with the stated amount of solvent and the stated amount of emulsifier, and the concentrate is diluted with water to the desired concentration.
Bean plants (Phaseolus vulgaris) which have been heavily infested with the common spider mite or two-spotted spider mite (Tetranychus urticae) in all stages of development are treated by being dipped into the preparation of the active compound of the desired concentration.
After the specified period of time, the destruction in % is determined. 100% means that all the spider mites have been killed; 0% means that none of the spider mites have been killed.

[4] = system: peach aphid (Myzus persicae); assay: Myzus test; conditions: active compound concentration 0.1%; after 6 days; dipped infested cabbage leaves (Brassica oleracea)
Procedure: as §1, with “Myzus” for “Nephotettix”, “Cabbage leaves (Brassica oleracea) which have been heavily infested with the peach aphid (Myzus persicae)” for “Rice seedlings (Oryza sativa)”, “concentration.” for “concentration and are infested with the green rice leafhopper (Nephotettix cincticeps) while the leaves are still moist.”, “aphids” for “leafhoppers”

[5] = system: caterpillars of the diamond-back moth (Plutella xylostella); assay: Plutella test; conditions: active compound concentration 0.1%; after 7 days; dipped cabbage leaves (Brassica oleracea)
Procedure: Plutella Test Solvent: 7 parts by weight of dimethylformamide Emulsifier: 1 part by weight of alkylaryl polyglycol ether To produce a suitable preparation of active compound, 1 part by weight of active compound is mixed with the stated amount of solvent and the stated amount of emulsifier, and the concentrate is diluted with water to the desired concentration. Cabbage leaves (Brassica oleracea) are treated by being dipped into the preparation of the active compound of the desired concentration and are infested with caterpillars of the diamond-back moth (Plutella xylostella) while the leaves are still moist. After the specified period of time, the destruction in % is determined. 100% means that all the caterpillars have been killed; 0% means that none of the caterpillars have been killed.

Cc1cc(Br)cc(C)c1C1=C(O)C2(CCCC(C)C2)NC1=O (stereo not drawn) [Example I-1-a-1]
100%: destruction in % [1] | destruction in % [2]

Cc1cc(C)c(C2=C(O)C3(CCCCC3)OC2=O)c(Br)c1 [Example I-2-a-1]
100%: action (destruction in %) [3] | destruction in % [1] | destruction in % [4] | destruction in % [2]

Cc1cc(C)c(C2=C(OC(=O)C(C)(C)C)C3(CCCCC3)OC2=O)c(Br)c1 [Example I-2-b-1]
100%: destruction in % [5] | destruction in % [1] | destruction in % [2]
